24 compounds from patent US7326721B2 (Hypnion, Inc., priority 2003, dated 2008) can be followed below.

Chain of hERG (Q12809 whole entry): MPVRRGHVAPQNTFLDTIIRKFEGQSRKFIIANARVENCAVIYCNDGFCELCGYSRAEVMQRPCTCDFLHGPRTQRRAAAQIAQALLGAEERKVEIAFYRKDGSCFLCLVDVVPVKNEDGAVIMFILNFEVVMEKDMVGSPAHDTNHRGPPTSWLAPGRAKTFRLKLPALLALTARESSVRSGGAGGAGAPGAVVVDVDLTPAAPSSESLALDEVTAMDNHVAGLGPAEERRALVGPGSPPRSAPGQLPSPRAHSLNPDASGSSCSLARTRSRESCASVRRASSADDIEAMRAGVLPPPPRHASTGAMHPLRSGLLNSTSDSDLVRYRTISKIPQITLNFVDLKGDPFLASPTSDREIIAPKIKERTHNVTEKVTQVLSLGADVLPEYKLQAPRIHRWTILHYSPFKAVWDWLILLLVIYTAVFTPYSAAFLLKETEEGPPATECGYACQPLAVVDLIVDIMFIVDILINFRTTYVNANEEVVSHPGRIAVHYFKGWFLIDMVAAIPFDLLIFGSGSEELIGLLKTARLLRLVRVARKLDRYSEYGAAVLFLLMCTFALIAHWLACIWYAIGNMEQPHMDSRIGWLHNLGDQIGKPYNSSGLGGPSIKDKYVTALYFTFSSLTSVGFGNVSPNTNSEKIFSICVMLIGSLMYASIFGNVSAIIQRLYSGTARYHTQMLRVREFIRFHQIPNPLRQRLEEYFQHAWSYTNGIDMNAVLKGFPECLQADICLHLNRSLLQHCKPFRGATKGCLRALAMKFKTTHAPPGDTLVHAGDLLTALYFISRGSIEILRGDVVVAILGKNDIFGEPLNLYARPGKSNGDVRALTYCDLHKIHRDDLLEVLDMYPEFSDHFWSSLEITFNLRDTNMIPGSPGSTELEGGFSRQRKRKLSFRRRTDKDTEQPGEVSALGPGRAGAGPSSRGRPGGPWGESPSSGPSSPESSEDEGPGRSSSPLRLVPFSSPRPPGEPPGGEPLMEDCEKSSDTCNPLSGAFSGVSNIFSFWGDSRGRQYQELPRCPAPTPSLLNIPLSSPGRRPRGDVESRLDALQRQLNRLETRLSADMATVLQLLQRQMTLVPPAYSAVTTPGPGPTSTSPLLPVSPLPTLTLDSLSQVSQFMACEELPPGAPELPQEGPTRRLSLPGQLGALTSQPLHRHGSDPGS

The subject of one data set is adult male Wistar rats. The data set can be described thus: SCORE-2000 sleep-wakefulness, locomotor activity and body temperature monitoring. The conditions noted are these: dose 1 mg/kg oral at CT-18. Type of data set: in vivo, rat.
Consider `COc1ccc2c(c1)COc1ccc(OC)cc1C2=C1CCN(CC(C)(C)C(=O)O)CC1` [Compound 10a], for which the LUSB was determined as 3.1 min and the NREM is -5 min.
In the same order, the values of `CC(C)(CN1CCC(=C2c3ccccc3COc3ccc(F)cc32)CC1)C(=O)O` [Compound 53a] are 5 min and 14.6 min.
In the same order, the values of `CC(C)(CN1CCC(=C2c3ccc(F)cc3COc3ccc(F)cc32)CC1)C(=O)O` [Compound 48a] are 6.9 min and 36.7 min.

The data set is the same for the next values; noted with them: dose 3 mg/kg oral at CT-18.
Consider `O=C(O)CCN1CCC(=C2c3ccccc3COc3ccccc32)CC1` [Compound 69e], for which the LUSB was 5.6 min and the NREM amounted to 21.2 min.
In the same order, the values of `CC(C)(CCN1CCC(=C2c3ccc(Cl)cc3COc3ccccc32)CC1)C(=O)O` [Compound 68a] are 4.3 min and 20.9 min.
In the same order, the values of `COc1ccc2c(c1)C(=C1CCN(CC(C)(C)C(=O)O)CC1)c1ccccc1CO2` [Compound 52a] are 8.2 min and 13.6 min.
For the compound `COc1ccc2c(c1)COc1ccc(OC)cc1C2=C1CCN(CC(C)(C)C(=O)O)CC1` [Compound 10a], the LUSB stood at 1.6 min and the NREM is -8.9 min.
`CC(C)(CN1CCC(=C2c3ccccc3COc3ccc(F)cc32)CC1)C(=O)O` [Compound 53a]: the LUSB amounted to 17.2 min and the NREM is 38.6 min.
As to `CC(C)(CN1CCC(=C2c3ccc(F)cc3COc3ccc(F)cc32)CC1)C(=O)O` [Compound 48a], the LUSB was 11.2 min and the NREM was 50.8 min.
Take `CC(C)(CN1CCC(=C2c3ccc(F)cc3COc3ccc(O)cc32)CC1)C(=O)O` [Compound 58a]: the LUSB was found to be 5.3 min and the NREM is 9.1 min.
The compound `CC(C)(CN1CCC(=C2c3ccccc3COc3ccccc32)CC1)C(=O)O` [Compound 69a] displayed an LUSB of 7.1 min and an NREM of 32.2 min.

The same data set, now with this note: dose 10 mg/kg oral at CT-18.
For `O=C(O)CCN1CCC(=C2c3ccccc3COc3ccccc32)CC1` [Compound 69e], the LUSB worked out at 9.7 min and the NREM came to 28.4 min.
In the same order, the values of `CC(C)(CCN1CCC(=C2c3ccc(Cl)cc3COc3ccccc32)CC1)C(=O)O` [Compound 68a] are 7.8 min and 45.9 min.
As for `COc1ccc2c(c1)C(=C1CCN(CC(C)(C)C(=O)O)CC1)c1ccccc1CO2` [Compound 52a], the LUSB came to 5.7 min and the NREM turned out to be 26.8 min.
In the same order, the values of `CC(C)(CCN1CCC(=C2c3ccccc3COc3ccc(O)cc32)CC1)C(=O)O` [Compound 65a] are 1.5 min and 6.2 min.
`O=C(O)C1(CN2CCC(=C3c4ccccc4COc4ccc(O)cc43)CC2)CC1` [Compound 55b] returned an LUSB of 2.5 min and an NREM of 7.7 min.
`COc1ccc2c(c1)C(=C1CCN(CC3(C(=O)O)CC3)CC1)c1ccccc1CO2` [Compound 52b] showed an LUSB of 2.9 min and an NREM of 7.5 min.
As to `CC(C)(CN1CCC(=C2c3ccc(O)cc3COc3ccc(F)cc32)CC1)C(=O)O` [Compound 60a], the LUSB was found to be 3.7 min and the NREM is -5.2 min.
In the same order, the values of `COc1ccc2c(c1)COc1ccc(OC)cc1C2=C1CCN(CC(C)(C)C(=O)O)CC1` [Compound 10a] are 4 min and 15.1 min.
Turning to `CC(C)(CN1CCC(=C2c3ccccc3COc3ccc(F)cc32)CC1)C(=O)O` [Compound 53a], the LUSB was found to be 14.4 min and the NREM was 51.5 min.
`CC(C)(CN1CCC(=C2c3ccc(F)cc3COc3ccc(F)cc32)CC1)C(=O)O` [Compound 48a] had an LUSB of 10 min and an NREM of 58.6 min.
Regarding `CC(C)(CN1CCC(=C2c3ccc(F)cc3COc3ccc(O)cc32)CC1)C(=O)O` [Compound 58a], the LUSB was 7.6 min and the NREM was -12.5 min.
In the same order, the values of `CC(C)(CN1CCC(=C2c3ccccc3COc3ccccc32)CC1)C(=O)O` [Compound 69a] are 13.1 min and 32.8 min.
In the same order, the values of `O=C(O)C1(CCN2CCC(=C3c4ccccc4COc4ccc(O)cc43)CC2)CC1` [Compound 65b] are 3.9 min and -5.7 min.
In the same order, the values of `O=C(O)C1(CCN2CCC(=C3c4ccc(O)cc4COc4ccccc43)CC2)CC1` [Compound 63b] are 2.1 min and -4.8 min.

The data set is the same for the next values; noted with them: dose 20 mg/kg oral at CT-18.
Compound `O=C(O)CCN1CCC(=C2c3ccccc3COc3ccccc32)CC1` [Compound 69e] had an LUSB of 12.3 min and an NREM of 54.6 min.

Still in this data set, the particulars now being: dose 30 mg/kg oral at CT-18.
For `Cc1ccc2c(c1)COc1ccccc1C2=C1CCN(CC(C)(C)C(=O)O)CC1` [Compound 57a], the LUSB was -5.3 min and the NREM is -11 min.
In turn, `CC(C)(CCN1CCC(=C2c3ccc(C(F)(F)F)cc3COc3ccccc32)CC1)C(=O)O` [Compound 64a] displayed an LUSB of 12.3 min and an NREM of 33.5 min.
Compound `CC(C)(CN1CCC(=C2c3ccc(C(F)(F)F)cc3COc3ccccc32)CC1)C(=O)O` [Compound 54a] had an LUSB of 6.1 min and an NREM of 28.6 min.
In the same order, the values of `O=C(O)C1(CN2CCC(=C3c4ccc(O)cc4COc4ccccc43)CC2)CC1` [Compound 56b] are -2.9 min and -9.9 min.
Compound `CC(C)(CCN1CCC(=C2c3ccc(Cl)cc3COc3ccccc32)CC1)C(=O)O` [Compound 68a] yielded an LUSB of 11.9 min and an NREM of 50.8 min.
For `COc1ccc2c(c1)C(=C1CCN(CC(C)(C)C(=O)O)CC1)c1ccccc1CO2` [Compound 52a], the LUSB amounted to 10.1 min and the NREM was 37.2 min.
In the same order, the values of `COc1ccc2c(c1)C(=C1CCN(CCC(C)(C)C(=O)O)CC1)c1ccccc1CO2` [Compound 67a] are 6.5 min and -11.5 min.
With `CC(C)(CN1CCC(=C2c3ccc(O)cc3COc3ccccc32)CC1)C(=O)O` [Compound 56a], the LUSB was determined as 4.3 min and the NREM stood at 6.4 min.
In the same order, the values of `COc1ccc2c(c1)C(=C1CCN(CC3(C(=O)O)CC3)CC1)c1ccccc1CO2` [Compound 52b] are 7.1 min and 26.8 min.
In the same order, the values of `COc1ccc2c(c1)COc1ccc(OC)cc1C2=C1CCN(CC(C)(C)C(=O)O)CC1` [Compound 10a] are 6.8 min and 30.9 min.
In the same order, the values of `CC(C)(CCN1CCC(=C2c3ccc(O)cc3COc3ccccc32)CC1)C(=O)O` [Compound 63a] are 4.6 min and 9.6 min.
`CC(C)(CN1CCC(=C2c3ccccc3COc3ccc(F)cc32)CC1)C(=O)O` [Compound 53a] registered an LUSB of 11.9 min and an NREM of 66.3 min.
In turn, `CC(C)(CN1CCC(=C2c3ccc(F)cc3COc3ccc(F)cc32)CC1)C(=O)O` [Compound 48a] came in with an LUSB of 4.4 min and an NREM of 39.4 min.
Regarding `CC(C)(CN1CCC(=C2c3ccccc3COc3ccc(O)cc32)CC1)C(=O)O` [Compound 55a], the LUSB turned out to be 2 min and the NREM was found to be 12.8 min.
In the same order, the values of `CC(C)(CCCN1CCC(=C2c3ccccc3COc3ccccc32)CC1)C(=O)O` [Compound 71a] are 3.6 min and 8.1 min.
In the same order, the values of `CC(C)(CN1CCC(=C2c3ccccc3COc3ccccc32)CC1)C(=O)O` [Compound 69a] are 13.5 min and 40 min.
In the same order, the values of `Cc1ccc2c(c1)COc1ccccc1C2=C1CCN(CCC(C)(C)C(=O)O)CC1` [Compound 66a] are 8.8 min and 27.8 min.

The next data set concerns the target hERG (Homo sapiens, UniProt Q12809).
Experiment: not given
Details: not given
On to `O=C(O)CCN1CCC(=C2c3ccccc3COc3ccccc32)CC1` [Compound 69e], for which the “hERG at micromolar (% blocking of the hERG channel)” value is −1.4% @ 1.
`CC(C)(CCN1CCC(=C2c3ccc(Cl)cc3COc3ccccc32)CC1)C(=O)O` [Compound 68a]: the “hERG at micromolar (% blocking of the hERG channel)” value was 25.3% @ 10.

Staying with this data set, now noted: human, 1 µM, pH 7.4.
Regarding `CC(C)(CN1CCC(=C2c3ccccc3COc3ccccc32)CC1)C(=O)O` [Compound 69a], the “hERG at micromolar (% blocking of the hERG channel)” value is listed as 6.1% @ 1.
